Experimental data published in patent US12583866B2, “Pyrido[2,3-b][1,4]oxazines or tetrahydropyrido[2,3-b][1,4]oxazepines as IAP antagonists” (BEIGENE, LTD., priority 2020, dated 2026).
Counter-ions that a name gives are not always drawn.

What was measured:
[1] = biological target: T1, recombinant human XIAP-BIR3 protein (Homo sapiens, UniProt P98170); test: Recombinant human XIAP-BIR3 biochemical assay (HTRF, peptide displacement); conditions: 3.7 nM XIAP-BIR3, 7.6 nM AbuRPF-K(5-Fam)-NH2 peptide, read-out: Protein binding IC50 (nM) XIAP
T1 construct: recombinant human XIAP-BIR3 protein; purchased Reaction biology APT-11-374
T1 sequence (P98170 241-356 limits assumed): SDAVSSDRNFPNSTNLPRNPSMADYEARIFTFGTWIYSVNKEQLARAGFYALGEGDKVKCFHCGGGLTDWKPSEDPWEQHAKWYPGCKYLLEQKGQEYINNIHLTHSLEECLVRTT
Method in brief: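 HTRF peptide displacement with 7.6 nM 5-Fam-labelled AbuRPF peptide, anti-6His Tb donor and 3.7 nM recombinant XIAP-BIR3. Protein and compound (10-point, 4-fold from 10 µM) were preincubated 1 h RT in HEPES pH 7.5 buffer before each addition, each 1 h. IC50 by four-parameter fit of the 520/490 nm ratio.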

[2] = biological target: T2, recombinant human cIAP2-BIR3 protein (Homo sapiens, UniProt Q13489); test: Recombinant human c-IAP2-BIR3 biochemical assay (HTRF, peptide displacement); conditions: 3.7 nM cIAP2-BIR3, 3.7 nM AbuRPF-K(5-Fam)-NH2 peptide, read-out: Protein binding IC50 (nM) c-IAP2
T2 construct: recombinant human cIAP2-BIR3 protein; purchased Reaction biology APT-11-372
T2 sequence (Q13489 238-349 limits assumed): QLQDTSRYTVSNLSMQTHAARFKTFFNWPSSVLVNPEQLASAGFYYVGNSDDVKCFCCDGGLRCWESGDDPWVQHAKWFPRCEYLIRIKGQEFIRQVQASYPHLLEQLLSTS
Method in brief: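 HTRF peptide-displacement readout (ex337, em520/490 ratio) after sequential 1 h room-temperature steps: compound with 3.7 nM protein, then 3.7 nM 5-Fam-labelled AbuRPF peptide, then Tb-cryptate anti-6His antibody. Buffer pH 7.5 HEPES with NaCl, Tween-20, DTT; 10-point 4-fold dilutions from 10 uM; four-parameter logistic IC50.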

[3] = biological target: T3, recombinant human cIAP1-BIR3 protein (Homo sapiens, UniProt Q13490); test: Recombinant human c-IAP1-BIR3 biochemical assay (HTRF, peptide displacement); conditions: 1.2 nM cIAP1-BIR3, 3 nM AbuRPF-K(5-Fam)-NH2 peptide, read-out: Protein binding IC50 (nM) c-IAP1
T3 construct: recombinant human cIAP1-BIR3 protein; purchased Reaction biology APT-11-370
T3 sequence (Q13490 253-363 limits assumed): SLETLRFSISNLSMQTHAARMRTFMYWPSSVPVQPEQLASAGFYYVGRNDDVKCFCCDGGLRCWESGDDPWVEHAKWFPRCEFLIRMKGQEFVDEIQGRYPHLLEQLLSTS
Method in brief: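 HTRF peptide displacement: after 1 h compound pre-incubation (max 10 uM, 4-fold dilutions, 10 points) with 1.2 nM protein in HEPES pH 7.5 buffer, 3 nM 5-Fam-labelled AbuRPF-K peptide and Tb-anti-6His were each added for 1 h at room temperature. Inhibition taken from 520/490 nm ratio, fitted four-parameter logistic for IC50.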

IC50 [1] | IC50 [2] | IC50 [3] | Structure (SMILES)
84 nM | 1.43 nM | 0.57 nM | CC(C)[C@H]1COc2ncc(Cc3ccc(F)cc3)cc2N1C(=O)CN1C[C@@H](C)NC[C@@H]1CN1CCOC[C@H]1C [Compound 47, 1-((S)-7-(4-fluorobenzyl)-2-isopropyl-2,3-dihydro-1H-pyrido[2,3-b][1,4]oxazin-1-yl)-2-((2R,5R)-5-methyl-2-(((R)-3-methylmorpholino)methyl)piperazin-1-yl)ethan-1-one]
3.97 nM | 0.21 nM | 0.13 nM | C[C@@H]1CN(CC(=O)N2c3cc(Cc4ccc(F)cc4)cnc3OC[C@@H]2C)[C@@H](CN2[C@H](C)COC[C@H]2C)CN1 [Compound 22]
5.8 nM | 0.36 nM | 0.25 nM | C[C@@H]1CN(CC(=O)N2c3cc(Cc4ccc(F)cc4)c(C(N)=O)nc3OC[C@@H]2C)[C@@H](CN2[C@H](C)COC[C@H]2C)CN1 [Compound 32, (S)-1-(2-((2R,5R)-2-(((3R,5R)-3,5-dimethylmorpholino)methyl)-5-methylpiperazin-1-yl)acetyl)-7-(4-fluorobenzyl)-2-methyl-2,3-dihydro-1H-pyrido[2,3-b][1,4]oxazine-6-carboxamide]
14 nM | 0.5 nM | 0.2 nM | C[C@@H]1CN(CC(=O)N2c3cc(Cc4ccc(F)cc4)cnc3OC[C@@H]2C2CC2)[C@@H](CN2[C@H](C)COC[C@H]2C)CN1 [Compound 27, 1-((S)-2-cyclopropyl-7-(4-fluorobenzyl)-2,3-dihydro-1H-pyrido[2,3-b][1,4]oxazin-1-yl)-2-((2R,5R)-2-(((3R,5R)-3,5-dimethylmorpholino)methyl)-5-methylpiperazin-1-yl)ethan-1-one]
11.3 nM | 0.35 nM | 0.28 nM | C[C@@H]1CN(CC(=O)N2c3cc(Cc4ccc(F)cc4)c(CO)nc3OC[C@@H]2C)[C@@H](CN2[C@H](C)CN(C)C[C@H]2C)CN1 [Compound 105, 1-((S)-7-(4-fluorobenzyl)-6-(hydroxymethyl)-2-methyl-2,3-dihydro-1H-pyrido[2,3-b][1,4]oxazin-1-yl)-2-((2R,5R)-5-methyl-2-(((2R,6R)-2,4,6-trimethylpiperazin-1-yl)methyl)piperazin-1-yl)ethan-1-one]
2.3 nM | 0.25 nM | 0.19 nM | C[C@@H]1CN(CC(=O)N2c3cc(Cc4ccc(F)cc4)c(C(=O)NC[C@@H]4CCOC4)nc3OC[C@@H]2C)[C@@H](CN2[C@H](C)COC[C@H]2C)CN1 [Compound 95, (S)-1-(2-((2R,5R)-2-(((3R,5R)-3,5-dimethylmorpholino)methyl)-5-methylpiperazin-1-yl)acetyl)-7-(4-fluorobenzyl)-2-methyl-N—(((S)-tetrahydrofuran-3-yl)methyl)-2,3-dihydro-1H-pyrido[2,3-b][1,4]oxazine-6-carboxamide]
12 nM | 0.24 nM | 0.11 nM | C[C@@H]1CN(CC(=O)N2c3cc(Cc4ccc(F)cc4)cnc3OC[C@@H]2COc2ccccc2)[C@@H](CN2CCOC[C@H]2C)CN1 [Compound 41]
50 nM | 0.8 nM | 0.42 nM | CCOC[C@H]1COc2ncc(Cc3ccc(F)cc3)cc2N1C(=O)CN1C[C@@H](C)NC[C@@H]1CN1[C@H](C)COC[C@H]1C [Compound 36]
25 nM | 0.52 nM | 0.34 nM | C[C@@H]1CN(CC(=O)N2c3cc(Cc4ccc(F)cc4)cnc3OC[C@@H]2C2CCCCC2)[C@@H](CN2CCOC[C@H]2C)CN1 [Compound 42, 1-((S)-2-cyclohexyl-7-(4-fluorobenzyl)-2,3-dihydro-1H-pyrido[2,3-b][1,4]oxazin-1-yl)-2-((2R,5R)-5-methyl-2-(((R)-3-methylmorpholino)methyl)piperazin-1-yl)ethan-1-one]
9.2 nM | 0.67 nM | 0.3 nM | CC[C@@H]1COCCN1C[C@H]1CN[C@H](C)CN1CC(=O)N1c2cc(Cc3ccc(F)cc3)c(CO)nc2OC[C@@H]1C [Compound 51, 2-((2R,5R)-2-(((R)-3-ethylmorpholino)methyl)-5-methylpiperazin-1-yl)-1-((S)-7-(4-fluorobenzyl)-6-(hydroxymethyl)-2-methyl-2,3-dihydro-1H-pyrido[2,3-b][1,4]oxazin-1-yl)ethan-1-one]
140 nM | 25 nM | 9.9 nM | C[C@@H]1CN(CC(=O)N2c3cc(Cc4ccc(F)cc4)cnc3OCC23CC3)[C@@H](CN2CCOC[C@H]2C)CN1 [Compound 20, 1-(7′-(4-fluorobenzyl)-1′H,3′H-spiro[cyclopropane-1,2′-pyrido[2,3-b][1,4]oxazin]-1′-yl)-2-((2R,5R)-5-methyl-2-(((R)-3-methylmorpholino)methyl)piperazin-1-yl)ethan-1-one hydrochloride]
12.4 nM | 0.43 nM | 0.16 nM | C[C@@H]1CN(CC(=O)N2c3cc(Cc4ccc(F)cc4)c(C(=O)NCCN4CCN(C)CC4)nc3OC[C@@H]2C)[C@@H](CN2[C@H](C)COC[C@H]2C)CN1 [Compound 99, (S)-1-(2-((2R,5R)-2-(((3R,5R)-3,5-dimethylmorpholino)methyl)-5-methylpiperazin-1-yl)acetyl)-7-(4-fluorobenzyl)-2-methyl-N-(2-(4-methylpiperazin-1-yl)ethyl)-2,3-dihydro-1H-pyrido[2,3-b][1,4]oxazine-6-carboxamide]
61 nM | 3 nM | 1.1 nM | C[C@@H]1CN(CC(=O)N2CCOc3nc(C4CC4)c(Cc4ccc(F)cc4)cc32)[C@@H](CN2CCOC[C@H]2C)CN1 [Compound 6, 1-(6-cyclopropyl-7-(4-fluorobenzyl)-2,3-dihydro-1H-pyrido[2,3-b][1,4]oxazin-1-yl)-2-((2R,5R)-5-methyl-2-(((R)-3-methylmorpholino)methyl)piperazin-1-yl)ethan-1-one]
18 nM | 1.1 nM | 0.7 nM | Cc1nc2c(cc1Cc1ccc(F)cc1)N(C(=O)CN1C[C@@H](C)NC[C@@H]1CN1CCOC[C@H]1C)CCO2 [Compound 5, 1-(7-(4-fluorobenzyl)-6-methyl-2,3-dihydro-1H-pyrido[2,3-b][1,4]oxazin-1-yl)-2-((2R,5R)-5-methyl-2-(((R)-3-methylmorpholino)methyl)piperazin-1-yl)ethan-1-one]
2.9 nM | 0.42 nM | 0.18 nM | C[C@@H]1CN(CC(=O)N2c3cc(Cc4ccc(F)cc4)c(O)nc3OC[C@@H]2C)[C@@H](CN2[C@H](C)COC[C@H]2C)CN1 [Example 81]
3.6 nM | 0.48 nM | 0.3 nM | C[C@@H]1CN(CC(=O)N2c3cc(Cc4ccc(F)cc4)c(CO)nc3OC[C@@H]2C)[C@@H](CN2C[C@H](C)OC[C@H]2C)CN1 [Compound 49]
12 nM | 1.2 nM | 0.46 nM | CCOC[C@@H]1COCCN1C[C@H]1CN[C@H](C)CN1CC(=O)N1c2cc(Cc3ccc(F)cc3)c(CO)nc2OC[C@@H]1C [Compound 53]
4.9 nM | 0.3 nM | 0.22 nM | C[C@@H]1CN(CC(=O)N2c3cc(Cc4ccc(F)cc4)c(C(=O)N(C)C)nc3OC[C@@H]2C)[C@@H](CN2[C@H](C)COC[C@H]2C)CN1 [Example 80, (S)-1-(2-((2R,5R)-2-(((3R,5R)-3,5-dimethylmorpholino)methyl)-5-methylpiperazin-1-yl)acetyl)-7-(4-fluorobenzyl)-N,N,2-trimethyl-2,3-dihydro-1H-pyrido[2,3-b][1,4]oxazine-6-carboxamide]
5.7 nM | 0.49 nM | 0.24 nM | C[C@@H]1CN(CC(=O)N2c3cc(Cc4ccc(F)cc4)c(C(=O)N4CCCCC4)nc3OC[C@@H]2C)[C@@H](CN2[C@H](C)COC[C@H]2C)CN1 [Compound 102, 2-((2R,5R)-2-(((3R,5R)-3,5-dimethylmorpholino)methyl)-5-methylpiperazin-1-yl)-1-((S)-7-(4-fluorobenzyl)-2-methyl-6-(piperidine-1-carbonyl)-2,3-dihydro-1H-pyrido[2,3-b][1,4]oxazin-1-yl)ethan-1-one]
16 nM | 1.13 nM | 0.48 nM | C[C@@H]1CN(CC(=O)N2c3cc(Cc4ccc(F)cc4)cnc3OC[C@@H]2C2CC2)[C@@H](CN2CCOC[C@H]2C)CN1 [Compound 26, 1-((S)-2-cyclopropyl-7-(4-fluorobenzyl)-2,3-dihydro-1H-pyrido[2,3-b][1,4]oxazin-1-yl)-2-((2R,5R)-5-methyl-2-(((R)-3-methylmorpholino)methyl)piperazin-1-yl)ethan-1-one]
